Test results: ChEMBL document CHEMBL1201862, “PubChem BioAssay data set” (2004)
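Following 48 hours of exposure in 96-well plates, responses at five concentrations were used to interpolate endpoints linearly. At the GI50, growth is halved.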 Calls of active or inactive are those of the source. Cut-off read from the data, not from the text of the source: active = GI50 up to about 1.1 µM and inactive = higher.

Columns and labels:
Assay in all cases: NCI-60 cell line screen, 48 h
[1] = test system: ACHN
[2] = test system: DU-145
[3] = test system: HCT-116
[4] = test system: HCT-15
[5] = test system: HT-29
[6] = test system: KM12
[7] = test system: MCF7
[8] = test system: MOLT-4
[9] = test system: NCI-H460
[10] = test system: OVCAR-5
[11] = test system: PC-3
[12] = test system: SF-539
[13] = test system: SK-OV-3
[14] = test system: SNB-75
[15] = test system: SR
[16] = test system: SW-620
[17] = test system: U-251
[18] = test system: UACC-257
[19] = test system: UACC-62
[20] = test system: XF498

Structure (SMILES)	GI50 [1]	GI50 [2]	GI50 [3]	GI50 [4] [µM]	GI50 [5]	GI50 [6]	GI50 [7]	GI50 [8]	GI50 [9]	GI50 [10]	GI50 [11]	GI50 [12]	GI50 [13]	GI50 [14]	GI50 [15]	GI50 [16]	GI50 [17]	GI50 [18]	GI50 [19]	GI50 [20]
CC(C)OC(=O)Nc1c([N+](=O)[O-])cc(C(F)(F)F)cc1[N+](=O)[O-]	> 100 µM (inactive)	> 100 µM (inactive)	> 100 µM (inactive)	> 100	> 100 µM (inactive)	> 100 µM (inactive)	> 100 µM (inactive)	> 46.5 µM (inactive)	> 100 µM (inactive)	> 100 µM (inactive)	> 100 µM (inactive)	23.9 µM (inactive)	40.3 µM (inactive)	5.38 µM (inactive)	> 67.5 µM (inactive)	> 100 µM (inactive)	97.9 µM (inactive)	> 100 µM (inactive)	> 100 µM (inactive)	28.1 µM (inactive)
CC(C)CC1CC2C(=O)N(c3ccccc3)C(=O)C2c2[nH]c3ccccc3c21 (stereo unspecified)	38 µM (inactive)		11.4 µM (inactive)	17.3	51.9 µM (inactive)	52.7 µM (inactive)		17.9 µM (inactive)	29.2 µM (inactive)	> 100 µM (inactive)		23.2 µM (inactive)	21.4 µM (inactive)	13.1 µM (inactive)	10.4 µM (inactive)	23.8 µM (inactive)	25 µM (inactive)	26.5 µM (inactive)	12.4 µM (inactive)	20.3 µM (inactive)
CC1(C)C(=O)C(O)=CC2C1=CCC1C2(C)C(=O)CC2(C)C(C(C)(O)C(=O)CC(O)C(C)(C)O)C(O)CC12C (stereo unspecified)	2.3 µM (inactive)		3.97 µM (inactive)	3.18	3.35 µM (inactive)	9.14 µM (inactive)		17.1 µM (inactive)	3.39 µM (inactive)	25.2 µM (inactive)		2.57 µM (inactive)	3.72 µM (inactive)	0.989 µM (active)	4 µM (inactive)	3.57 µM (inactive)	2.65 µM (inactive)	3.52 µM (inactive)	5.52 µM (inactive)	3.28 µM (inactive)
C=C(CN(CC(=C)C(=O)c1ccccc1)C(C)(C)C)C(=O)c1ccccc1	8.99 µM (inactive)	19.6 µM (inactive)	13.8 µM (inactive)		18.1 µM (inactive)	13 µM (inactive)		2.49 µM (inactive)	20.6 µM (inactive)	19.6 µM (inactive)		16.8 µM (inactive)	18.4 µM (inactive)	12.8 µM (inactive)	2.1 µM (inactive)	2.82 µM (inactive)	20.5 µM (inactive)	17 µM (inactive)	17.2 µM (inactive)	6.58 µM (inactive)
COc1cccc2c1C(=O)c1c(O)c3c(c(O)c1C2=O)C[C@@](O)(C(C)=O)C[C@@H]3OC1OC(C)C(O)C(N)C1Br (stereo partly specified)	0.0213 µM (active)	0.0475 µM (active)	0.00792 µM (active)	0.132	0.152 µM (active)	0.14 µM (active)	0.00385 µM (active)	0.001 µM (active)	0.001 µM (active)	0.28 µM (active)	0.138 µM (active)	0.0583 µM (active)	0.045 µM (active)	0.0029 µM (active)	0.00497 µM (active)	0.0177 µM (active)	0.0295 µM (active)	0.155 µM (active)	0.105 µM (active)	0.129 µM (active)
